ChEMBL document CHEMBL2177080, “N-[5-(5-fluoropyridin-3-yl)-1H-pyrazol-3-yl]-4-piperidin-1-ylbutyramide (SEN78702, WYE-308775): a medicinal chemistry effort toward an α7 nicotinic acetylcholine receptor agonist preclinical candidate” (J Med Chem, 2012)
Values belong to the compound of their own block, whether it stands above or below them. Active and inactive are the calls of the source. The rule behind the calls is not given here.

What was measured:
[1] = molecular target: T1, 5-hydroxytryptamine receptor 3A (Homo sapiens) (UniProt P46098); test: (§1) Agonist activity at human 5HT3R expressed in HEK293 cells assessed as stimulation of calcium flux by FLIPR; assay type: functional, cell-based
T1 sequence (whole entry): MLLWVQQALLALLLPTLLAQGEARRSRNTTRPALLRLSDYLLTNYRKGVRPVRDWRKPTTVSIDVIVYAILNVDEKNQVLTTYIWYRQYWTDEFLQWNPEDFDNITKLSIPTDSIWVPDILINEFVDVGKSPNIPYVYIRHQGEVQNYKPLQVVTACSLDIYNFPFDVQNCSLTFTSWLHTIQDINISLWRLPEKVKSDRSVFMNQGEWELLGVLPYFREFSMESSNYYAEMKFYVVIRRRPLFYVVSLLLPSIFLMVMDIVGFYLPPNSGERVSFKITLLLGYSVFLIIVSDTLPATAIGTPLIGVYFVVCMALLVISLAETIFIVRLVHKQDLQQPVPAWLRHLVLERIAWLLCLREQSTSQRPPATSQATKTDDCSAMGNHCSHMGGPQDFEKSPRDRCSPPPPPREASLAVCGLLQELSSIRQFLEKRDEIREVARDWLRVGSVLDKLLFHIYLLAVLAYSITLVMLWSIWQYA

[2] = molecular target: Neuronal acetylcholine receptor subunit alpha-3 (Homo sapiens, UniProt P32297); test: Agonist activity at alpha3 nAchR in human SH-SY5Y cells assessed as stimulation of calcium flux by FLIPR; assay type: functional, cell-based
[3] = molecular target: Acetylcholine receptor; alpha1/beta1/delta/gamma (Homo sapiens, UniProt P02708+P07510+P11230+Q07001); test: Agonist activity at alpha1beta1gammadelta nAChR nAchR in human TE671 cells assessed as stimulation of calcium flux by FLIPR; assay type: functional, cell-based; conditions: for pIC50: TE-671
[4] = molecular target: T2, Neuronal acetylcholine receptor subunit alpha-7 (Rattus norvegicus, UniProt Q05941); test: Agonist activity at rat alpha7 nAchR expressed in rat GH4C1 cells assessed as stimulation of calcium flux by FLIPR
[5] = system: Plasma; test: Stability in rat plasma assessed as compound remaining incubated for 3 hrs; assay type: ADME, cell-free
[6] = molecular target: T2, Neuronal acetylcholine receptor subunit alpha-7; test: Agonist activity at rat alpha7 nAchR expressed in rat GH4C1 cells by patch clamp assay; assay type: functional, cell-based, GH4-C1
[7] = system: Rattus norvegicus; test: Inhibition of MK801-Induced prepulse inhibition deficits in Long Evans rat administered orally 60 mins before MK-801 challenge; assay type: functional; conditions: po, read-out: MED
[8] = Toxicity in rat during 7-day tolerability study; assay type: organism-based; conditions: in vivo
[9] = molecular target: T3, Alpha-2C adrenergic receptor (Homo sapiens) (UniProt P18825); test: Inhibition of alpha2c adrenergic receptor at 10 uM
T3 sequence (whole entry): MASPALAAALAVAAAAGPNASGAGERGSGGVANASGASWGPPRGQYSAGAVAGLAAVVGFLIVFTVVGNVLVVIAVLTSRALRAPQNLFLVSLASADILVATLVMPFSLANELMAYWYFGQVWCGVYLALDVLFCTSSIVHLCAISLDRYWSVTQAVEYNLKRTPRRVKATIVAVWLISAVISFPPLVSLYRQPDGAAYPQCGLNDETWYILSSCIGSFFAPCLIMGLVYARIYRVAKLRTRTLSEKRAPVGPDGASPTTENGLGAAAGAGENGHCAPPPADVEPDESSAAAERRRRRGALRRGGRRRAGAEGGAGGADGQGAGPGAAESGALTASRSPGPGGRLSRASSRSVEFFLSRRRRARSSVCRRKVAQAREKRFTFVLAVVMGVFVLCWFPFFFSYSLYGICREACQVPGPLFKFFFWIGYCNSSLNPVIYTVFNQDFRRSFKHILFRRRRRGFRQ

[10] = system: Rattus norvegicus; test: Induction of memory enhancement Wistar rat administered orally 30 mins before acquisition trial by novel object recognition test; assay type: functional; conditions: po, read-out: MED
[11] = system: Rattus norvegicus; test: Induction of memory enhancement Wistar rat at 1 to 10 mg/kg, po administered 30 mins before acquisition trial pre-treated with 3 mg/kg alpha7 selective antagonist methyllycaconitin by novel object recognition test; assay type: functional, organism-based
[12] = system: Rattus norvegicus; test: Induction of memory enhancement Wistar rat at 1 to 10 mg/kg, po administered 30 mins before acquisition trial by novel object recognition test; assay type: functional, organism-based
[13] = Clearance in Wistar rat 2 mg/kg, iv; assay type: ADME, organism-based; parameters: dose 2 mg/kg, route intravenous; conditions: in vivo
[14] = molecular target: T4, Alpha-2A adrenergic receptor (Homo sapiens) (UniProt P08913); test: Inhibition of alpha2a adrenergic receptor at 10 uM
T4 sequence (whole entry): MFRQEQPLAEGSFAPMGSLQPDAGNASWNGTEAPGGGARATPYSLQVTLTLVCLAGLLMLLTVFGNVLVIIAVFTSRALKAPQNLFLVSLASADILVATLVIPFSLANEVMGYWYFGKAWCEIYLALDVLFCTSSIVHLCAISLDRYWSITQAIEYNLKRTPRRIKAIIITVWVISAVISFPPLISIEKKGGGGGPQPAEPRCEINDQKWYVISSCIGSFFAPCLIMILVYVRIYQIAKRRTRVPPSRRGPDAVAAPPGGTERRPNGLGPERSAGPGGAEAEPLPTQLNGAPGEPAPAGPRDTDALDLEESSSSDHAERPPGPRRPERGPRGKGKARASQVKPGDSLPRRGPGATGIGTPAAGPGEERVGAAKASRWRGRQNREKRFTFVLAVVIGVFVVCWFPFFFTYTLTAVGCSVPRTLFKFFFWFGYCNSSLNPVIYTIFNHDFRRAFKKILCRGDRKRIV

[15] = system: Rattus norvegicus; test: Inhibition of MK801-Induced prepulse inhibition deficits in Long Evans rat at 1 to 10 mg/kg, po administered 60 mins before MK-801 challenge; assay type: functional, organism-based
[16] = Cmax in Wistar rat brain 3 mg/kg, po; assay type: ADME, organism-based; parameters: dose 3 mg/kg, route oral
[17] = molecular target: Neuronal acetylcholine receptor subunit alpha-7 (Homo sapiens, UniProt P36544); test: Agonist activity at human alpha7 nAchR by patch clamp assay; assay type: functional
[18] = molecular target: Histamine H3 receptor (Homo sapiens) (UniProt Q9Y5N1); test: Inhibition of histamine H3 receptor at 10 uM
[19] = molecular target: T2, Neuronal acetylcholine receptor subunit alpha-7; test: Displacement of [3H]-epibatidine from rat alpha7 nAchR expressed in rat GH4C1 cell membranes; parameters: species or system GH4-C1, Membrane
[20] = Tmax in Wistar rat 10 mg/kg, po; assay type: ADME, organism-based; parameters: dose 10 mg/kg, route oral; conditions: in vivo
[21] = molecular target: T5, Alpha-2B adrenergic receptor (Homo sapiens) (UniProt P18089); test: Inhibition of alpha2b adrenergic receptor at 10 uM
T5 sequence (whole entry): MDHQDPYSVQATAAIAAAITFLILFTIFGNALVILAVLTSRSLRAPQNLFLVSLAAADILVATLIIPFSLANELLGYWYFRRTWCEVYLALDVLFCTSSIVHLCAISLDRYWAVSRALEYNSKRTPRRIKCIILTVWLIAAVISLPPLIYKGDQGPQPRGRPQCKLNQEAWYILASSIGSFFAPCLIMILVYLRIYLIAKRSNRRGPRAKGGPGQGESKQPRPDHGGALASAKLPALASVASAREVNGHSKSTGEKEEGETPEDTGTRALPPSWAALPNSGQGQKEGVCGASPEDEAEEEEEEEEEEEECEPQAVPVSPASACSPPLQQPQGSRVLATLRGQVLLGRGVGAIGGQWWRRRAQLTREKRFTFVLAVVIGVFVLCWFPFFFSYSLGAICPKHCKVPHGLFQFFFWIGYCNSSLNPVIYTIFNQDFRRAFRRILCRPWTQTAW

[22] = molecular target: T6, 5-hydroxytryptamine receptor 3A (Homo sapiens, UniProt P46098); test: as §1; assay type: functional, cell-based
T6 sequence (P46098 whole entry): T1 sequence (whole entry)

[23] = molecular target: Neuronal acetylcholine receptor subunit alpha-7 (Rattus norvegicus) (UniProt Q05941); test: Agonist activity at rat alpha7 nAchR expressed in rat GH4C1 cells assessed as stimulation of calcium flux by FLIPR relative to nicotine; assay type: functional, cell-based; conditions: GH4-C1
[24] = molecular target: Voltage-gated inwardly rectifying potassium channel KCNH2 (Homo sapiens, UniProt Q12809); test: Inhibition of human ERG expressed in CHO cells; assay type: cell-based
Sequence of Voltage-gated inwardly rectifying potassium channel KCNH2 (Q12809 whole entry): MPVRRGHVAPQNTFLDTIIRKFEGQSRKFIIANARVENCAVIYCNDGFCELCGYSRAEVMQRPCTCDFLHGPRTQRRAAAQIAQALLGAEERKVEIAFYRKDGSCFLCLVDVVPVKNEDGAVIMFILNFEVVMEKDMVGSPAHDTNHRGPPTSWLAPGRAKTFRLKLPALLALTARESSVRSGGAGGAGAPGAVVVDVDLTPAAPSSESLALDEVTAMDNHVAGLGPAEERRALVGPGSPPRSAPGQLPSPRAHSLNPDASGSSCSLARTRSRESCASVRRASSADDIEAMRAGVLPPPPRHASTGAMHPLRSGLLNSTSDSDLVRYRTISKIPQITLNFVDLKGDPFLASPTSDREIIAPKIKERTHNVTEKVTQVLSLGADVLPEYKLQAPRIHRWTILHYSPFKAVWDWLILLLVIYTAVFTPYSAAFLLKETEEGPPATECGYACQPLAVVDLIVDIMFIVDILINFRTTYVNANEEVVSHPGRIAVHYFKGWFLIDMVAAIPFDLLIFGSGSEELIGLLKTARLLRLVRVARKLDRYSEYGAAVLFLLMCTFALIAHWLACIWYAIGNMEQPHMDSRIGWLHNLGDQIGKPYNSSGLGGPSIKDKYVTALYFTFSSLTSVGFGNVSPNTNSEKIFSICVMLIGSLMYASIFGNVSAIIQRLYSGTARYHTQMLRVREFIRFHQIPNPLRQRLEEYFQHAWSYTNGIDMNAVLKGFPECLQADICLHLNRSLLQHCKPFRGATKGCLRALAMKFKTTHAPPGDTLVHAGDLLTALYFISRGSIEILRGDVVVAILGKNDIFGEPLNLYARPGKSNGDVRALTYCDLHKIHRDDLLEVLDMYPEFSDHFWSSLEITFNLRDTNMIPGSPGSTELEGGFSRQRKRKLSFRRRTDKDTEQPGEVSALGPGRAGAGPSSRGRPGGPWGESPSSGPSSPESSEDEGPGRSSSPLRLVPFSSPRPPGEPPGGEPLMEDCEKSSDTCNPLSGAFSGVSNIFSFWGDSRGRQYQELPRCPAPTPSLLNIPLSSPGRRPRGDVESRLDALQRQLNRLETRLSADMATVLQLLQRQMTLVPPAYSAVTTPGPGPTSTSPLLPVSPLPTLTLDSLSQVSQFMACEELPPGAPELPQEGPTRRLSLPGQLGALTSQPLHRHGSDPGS

Sequence of Neuronal acetylcholine receptor subunit alpha-7 (Rattus norvegicus) (Q05941 whole entry): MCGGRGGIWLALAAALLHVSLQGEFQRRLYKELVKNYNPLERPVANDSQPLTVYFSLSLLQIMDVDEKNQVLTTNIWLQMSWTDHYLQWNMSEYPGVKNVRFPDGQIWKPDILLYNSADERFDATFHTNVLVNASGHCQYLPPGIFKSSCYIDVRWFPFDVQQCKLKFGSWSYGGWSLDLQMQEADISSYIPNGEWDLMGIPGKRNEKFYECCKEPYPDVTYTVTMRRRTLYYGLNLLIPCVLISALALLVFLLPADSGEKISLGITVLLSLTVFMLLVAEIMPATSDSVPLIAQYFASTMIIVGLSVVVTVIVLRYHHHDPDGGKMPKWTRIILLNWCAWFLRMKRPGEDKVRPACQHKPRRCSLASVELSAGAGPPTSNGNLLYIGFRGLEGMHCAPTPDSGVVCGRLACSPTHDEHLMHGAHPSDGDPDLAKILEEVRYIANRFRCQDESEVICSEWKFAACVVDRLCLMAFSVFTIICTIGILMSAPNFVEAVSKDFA
T2 sequence (Q05941 whole entry): as above
Sequence of Neuronal acetylcholine receptor subunit alpha-3 (P32297 whole entry): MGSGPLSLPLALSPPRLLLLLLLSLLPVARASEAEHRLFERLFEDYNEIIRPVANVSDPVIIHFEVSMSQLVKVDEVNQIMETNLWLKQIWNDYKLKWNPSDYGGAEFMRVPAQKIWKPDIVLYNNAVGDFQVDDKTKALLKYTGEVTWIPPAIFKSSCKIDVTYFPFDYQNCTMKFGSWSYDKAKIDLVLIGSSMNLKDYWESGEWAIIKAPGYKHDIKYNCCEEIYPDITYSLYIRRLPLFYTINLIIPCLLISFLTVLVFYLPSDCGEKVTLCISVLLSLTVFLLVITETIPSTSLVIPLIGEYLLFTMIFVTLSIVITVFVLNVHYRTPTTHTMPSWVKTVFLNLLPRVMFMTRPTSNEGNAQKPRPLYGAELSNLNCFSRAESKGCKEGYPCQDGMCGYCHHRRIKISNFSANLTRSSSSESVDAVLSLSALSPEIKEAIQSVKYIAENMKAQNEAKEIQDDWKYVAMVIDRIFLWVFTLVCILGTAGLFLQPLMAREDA
Sequence of Acetylcholine receptor; alpha1/beta1/delta/gamma (P02708 whole entry): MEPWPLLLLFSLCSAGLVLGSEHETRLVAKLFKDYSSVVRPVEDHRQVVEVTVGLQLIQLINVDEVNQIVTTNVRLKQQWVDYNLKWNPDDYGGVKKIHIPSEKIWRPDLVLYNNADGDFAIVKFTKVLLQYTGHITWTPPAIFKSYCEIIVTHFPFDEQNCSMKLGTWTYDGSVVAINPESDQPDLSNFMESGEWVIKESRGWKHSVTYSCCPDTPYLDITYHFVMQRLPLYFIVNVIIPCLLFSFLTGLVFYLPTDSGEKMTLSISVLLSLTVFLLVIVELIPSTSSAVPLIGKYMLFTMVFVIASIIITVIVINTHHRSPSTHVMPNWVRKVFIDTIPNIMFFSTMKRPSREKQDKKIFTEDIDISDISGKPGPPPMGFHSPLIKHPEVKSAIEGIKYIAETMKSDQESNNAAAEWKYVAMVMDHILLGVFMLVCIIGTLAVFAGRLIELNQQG
Sequence of Acetylcholine receptor; alpha1/beta1/delta/gamma (P07510 whole entry): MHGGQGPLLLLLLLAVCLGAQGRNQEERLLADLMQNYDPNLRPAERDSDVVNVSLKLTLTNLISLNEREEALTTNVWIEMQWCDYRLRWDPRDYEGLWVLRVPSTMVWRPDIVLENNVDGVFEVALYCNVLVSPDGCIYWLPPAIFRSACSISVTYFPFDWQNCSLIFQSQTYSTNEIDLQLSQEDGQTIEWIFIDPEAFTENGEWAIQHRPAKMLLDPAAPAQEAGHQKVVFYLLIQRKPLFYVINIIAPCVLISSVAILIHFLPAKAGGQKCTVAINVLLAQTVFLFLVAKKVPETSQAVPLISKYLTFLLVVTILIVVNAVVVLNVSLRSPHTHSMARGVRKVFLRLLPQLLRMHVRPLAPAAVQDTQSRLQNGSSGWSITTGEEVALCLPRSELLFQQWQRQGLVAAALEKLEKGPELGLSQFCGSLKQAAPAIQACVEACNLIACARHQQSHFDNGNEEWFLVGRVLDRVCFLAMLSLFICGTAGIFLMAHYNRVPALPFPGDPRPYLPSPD
Sequence of Acetylcholine receptor; alpha1/beta1/delta/gamma (P11230 whole entry): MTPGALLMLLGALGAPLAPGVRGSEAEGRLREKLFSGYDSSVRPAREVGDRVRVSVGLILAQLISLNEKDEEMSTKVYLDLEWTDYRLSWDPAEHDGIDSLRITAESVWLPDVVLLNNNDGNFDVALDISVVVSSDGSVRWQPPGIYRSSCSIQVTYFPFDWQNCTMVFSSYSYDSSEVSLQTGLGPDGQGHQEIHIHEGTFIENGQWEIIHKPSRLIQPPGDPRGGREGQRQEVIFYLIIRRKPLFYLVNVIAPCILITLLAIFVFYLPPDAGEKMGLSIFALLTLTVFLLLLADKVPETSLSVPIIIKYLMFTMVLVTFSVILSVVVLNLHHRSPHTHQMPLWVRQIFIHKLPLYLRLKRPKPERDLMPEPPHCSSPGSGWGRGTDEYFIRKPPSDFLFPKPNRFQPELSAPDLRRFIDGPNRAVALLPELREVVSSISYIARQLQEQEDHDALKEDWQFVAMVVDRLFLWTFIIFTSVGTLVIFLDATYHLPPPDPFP
Sequence of Acetylcholine receptor; alpha1/beta1/delta/gamma (Q07001 whole entry): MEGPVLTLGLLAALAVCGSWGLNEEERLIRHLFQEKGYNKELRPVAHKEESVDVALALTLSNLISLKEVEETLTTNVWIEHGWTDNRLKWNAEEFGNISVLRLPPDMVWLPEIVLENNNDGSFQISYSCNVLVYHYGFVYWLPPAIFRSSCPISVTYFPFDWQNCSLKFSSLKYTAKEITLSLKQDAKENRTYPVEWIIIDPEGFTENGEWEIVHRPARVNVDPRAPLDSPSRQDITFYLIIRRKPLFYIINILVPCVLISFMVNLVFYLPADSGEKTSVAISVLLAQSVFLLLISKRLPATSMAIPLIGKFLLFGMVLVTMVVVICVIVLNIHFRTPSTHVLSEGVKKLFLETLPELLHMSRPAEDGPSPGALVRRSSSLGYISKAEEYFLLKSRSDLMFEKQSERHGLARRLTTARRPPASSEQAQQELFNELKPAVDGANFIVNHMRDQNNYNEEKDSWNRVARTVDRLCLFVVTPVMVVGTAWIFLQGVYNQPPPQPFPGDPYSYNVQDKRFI
Sequence of Histamine H3 receptor (Homo sapiens) (Q9Y5N1 whole entry): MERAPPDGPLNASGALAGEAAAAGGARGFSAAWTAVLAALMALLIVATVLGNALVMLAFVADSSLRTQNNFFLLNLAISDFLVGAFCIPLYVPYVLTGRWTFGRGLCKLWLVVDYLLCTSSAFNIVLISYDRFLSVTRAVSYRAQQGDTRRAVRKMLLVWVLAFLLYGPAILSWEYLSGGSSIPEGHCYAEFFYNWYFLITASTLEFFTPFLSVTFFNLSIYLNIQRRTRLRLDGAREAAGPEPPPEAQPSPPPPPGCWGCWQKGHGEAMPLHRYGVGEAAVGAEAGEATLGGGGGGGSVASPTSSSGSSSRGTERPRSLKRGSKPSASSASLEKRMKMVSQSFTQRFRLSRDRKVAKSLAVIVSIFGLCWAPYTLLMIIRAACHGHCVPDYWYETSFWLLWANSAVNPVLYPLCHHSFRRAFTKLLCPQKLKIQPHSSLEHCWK

Compound: CC(C)(C)c1cc(NC(=O)CCCN2CCCCC2)[nH]n1
pIC50 [1]: inactive | pIC50 [2]: inactive | pIC50 [3]: inactive | EC50 [4]: > 31600 nM

Compound: COc1ccc(-c2cc(NC(=O)CCCCCN3CCCN(C(C)=O)CC3)n[nH]2)cc1
EC50 [4]: 1200 nM

Compound: O=C(CCCN1CCCCC1)Nc1cc(-c2cncc(F)c2)n[nH]1
EC50 [6]: 10700 nM | minimal effective dose [7]: 3 mg/kg | MTD at 7 day [8]: ≤ 100 mg/kg/day | inhibition [9]: 57% | minimal effective dose [10]: 3 mg/kg | Activity [11]: inactive | Activity [12]: Active | clearance [13]: 23 mL/min/kg | inhibition [14]: 73% | inhibition [15]: Active | Cmax [16]: 55 ng/g | EC50 [17]: 10000 nM | inhibition [18]: 62% | Ki [19]: 390 nM | Stability [5]: Stable | EC50 [4]: 740 nM | Tmax [20]: 1 h | inhibition [21]: 64%

Compound: COc1ccc(-c2cc(NC(=O)CCN3CCCN(C(C)=O)CC3)[nH]n2)cc1
Emax [23]: > 90% | EC50 [4]: 8510 nM

Compound: COc1ccc(-c2cc(NC(=O)CCCN3CCCN(C(C)=O)CC3)[nH]n2)cc1
Emax [23]: > 90% | Stability [5]: Stable | EC50 [4]: 912 nM

Compound: COc1ccc(-c2cc(NC(=O)CCCCCN3CCCN(C(C)=O)CC3)[nH]n2)cc1
Emax [23]: > 90%

Compound: O=C(CCCN1CCCCC1)Nc1cc(-c2cccc(F)c2)n[nH]1
IC50 [24]: 1290 nM | pIC50 [2]: Active | pIC50 [3]: Active | Stability [5]: Stable | EC50 [4]: 832 nM

Next, values leading:

EC50 [4]: 6610 nM
Compound: COc1ccc(-c2cc(NC(=O)CCCN3CCOCC3)[nH]n2)cc1

EC50 [4]: 1170 nM
Compound: COc1ccc(-c2cc(NC(=O)CCCN3CCCOCC3)[nH]n2)cc1

pIC50 [2]: Active | pIC50 [3]: Active | Stability [5]: Stable | EC50 [4]: 468 nM
Compound: COc1cccc(-c2cc(NC(=O)CCCN3CCCCC3)[nH]n2)c1

IC50 [22]: > 31600 nM | IC50 [2]: 7940 nM | IC50 [3]: > 31600 nM | EC50 [4]: 912 nM
Compound: COc1ccc(-c2cc(NC(=O)CCCN3CCCCCC3)[nH]n2)cc1

IC50 [22]: > 31600 nM | IC50 [2]: > 31600 nM | IC50 [3]: > 31600 nM | Stability [5]: Stable | EC50 [4]: 417 nM
Compound: COc1ccc(-c2cc(NC(=O)CCCN3CCCCC3)[nH]n2)cc1
